Test results published in US9513294B2, “Megastokes amino-triazolyl-BODIPY compounds and applications to live neuron staining and human serum albumin FA1 drug site probing” (National University of Singapore, priority 2012, dated 2016).
“Also recorded” adds a separate entry of the source.

Columns and labels:
[1] = Quantum yield measurements versus Acridine Yellow in EtOH; assay type: physicochemical; settings: for φ (%): MKCA compound library, quantum yield
Outline: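 Emission areas integrated over 510–700 nm were compared with Acridine Yellow in ethanol (Φ=0.47), all excited at 460 nm. The comparative equation was normalized to excitation-wavelength absorbance and solvent refractive index.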

[2] = Effect of solvent viscosity on fluorescence intensity (molecular rotor); assay type: physicochemical; settings: 100 μM, rt, solvents of similar polarity
Experimental: The fluorescence spectra of compound (BDC-9) in different solvents of similar polarities but covering a range of viscosities were analyzed. […] Increased solvent viscosity reduces bond rotation at positions 3 and 5 of the BODIPY core, which, without being bound to theory, minimizes non-radiative energy loss and leads to higher quantum yields (24).

human serum albumin = human serum albumin (Homo sapiens, UniProt P02768); assay: In vitro fluorescence screening against 84 biologically relevant analytes / 16 proteins; assay type: binding; settings: 10 μM, 10 mM HEPES pH 7.4, 1% DMSO
Chain of human serum albumin (P02768 25-609): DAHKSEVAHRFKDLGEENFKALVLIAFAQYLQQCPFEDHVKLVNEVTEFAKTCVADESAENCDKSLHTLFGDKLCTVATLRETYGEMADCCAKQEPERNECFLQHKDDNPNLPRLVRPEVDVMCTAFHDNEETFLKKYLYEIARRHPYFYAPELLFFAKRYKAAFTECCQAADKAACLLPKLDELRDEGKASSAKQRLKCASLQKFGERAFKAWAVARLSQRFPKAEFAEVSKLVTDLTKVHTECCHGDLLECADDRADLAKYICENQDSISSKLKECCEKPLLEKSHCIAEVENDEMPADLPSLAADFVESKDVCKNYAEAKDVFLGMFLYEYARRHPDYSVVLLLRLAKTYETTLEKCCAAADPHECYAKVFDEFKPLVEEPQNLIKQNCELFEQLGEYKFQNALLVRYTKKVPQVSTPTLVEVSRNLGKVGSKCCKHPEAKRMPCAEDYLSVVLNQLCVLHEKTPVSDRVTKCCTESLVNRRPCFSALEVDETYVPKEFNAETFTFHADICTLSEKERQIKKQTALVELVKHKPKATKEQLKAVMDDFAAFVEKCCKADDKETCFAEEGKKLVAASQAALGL
Experimental: F0 is the fluorescence intensity of BDC-9 in HEPES buffer. Values are represented as means (n=4).
Amino-triazolyl-BODIPYs (10 μM) were screened in 10 mM HEPES buffer, pH 7.4, containing 1% DMSO. Fluorescence intensities were measured using a SpectraMax M2 platereader in 384-well plates. Excitation was provided at each compound's excitation range, and emission spectrum was obtained starting from at least 30 nm beyond the excitation wavelength. All the analytes were tested at four serial concentrations.
The fluorescent response of BDC, BDCAC and BDCCA was examined against 84 biologically relevant analytes that were categorized into nine different sets (i.e. pH standards, viscous solutions, genetic macromolecules, peptides, metal ions, redox molecules, nucleic acids, proteins and other metabolites).

HSA [3] = biological target: T1, HSA (Homo sapiens, UniProt P02768); assay: Quantification of HSA in spiked urine samples; settings: urine spiked with HSA up to 1 mg/mL
T1 sequence (P02768 25-609): as above
Experimental: HSA (0 to 1 mg/mL) was added to 10% urine from healthy individuals in phosphate buffer (pH=7.3). BDC-9 was added at 10 μM concentration; λexc.: 460 nm, λem.: 575 nm; values represented as means (n=3) and error bars as standard deviations; linear regression: R^2=0.998.
In order to examine the selectivity and sensitivity of BDC-9 in complex matrices, BDC-9 was utilized to quantify the amount of HSA in urine samples. Microalbuminuria, which involves an albumin excretion rate of 15 to 40 μg/mL (80, 81), is a well-established cardiovascular risk marker and an indication of liver and renal disease (32,33). The fluorescence response of BDC-9 was analyzed in urine that was spiked with different amounts of HSA, up to 1 mg/mL.

[4] = Absorbance and fluorescence emission spectra (SpectraMax M2); assay type: physicochemical; settings: for λmax Absorp. (nm) / λmax Emission (nm): MKCA compound library; for λmax Absorp. (nm): absorbance maximum; for λmax Emission (nm): fluorescence emission maximum
Outline: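 Spectroscopic data, including quantum yields, were recorded with a SpectraMax M2 instrument and analysed in GraphPrism.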

HSA [5] = biological target: T1, HSA; assay: Determination of dissociation constant with HSA (fluorescence titration, one-site model); settings: HSA 10 μM, one-site specific binding model
Experimental: HSA (10 μM) was titrated against serial concentrations of BDC-9 (0.47 to 60 μM) and the fluorescence intensities were measured at 575 nm (λexc=460 nm). The fluorescence intensity of bound BDC-9 at each concentration was determined using the equation:
[formula] where F and F0 are the fluorescence intensities of a given concentration of BDC-9 with and without HSA respectively. Fsat is the fluorescence intensity at the same concentration of BDC-9 when fully bound.

HSA (fatty-acid free) = HSA (fatty-acid free) (Homo sapiens, UniProt P02768); assay: Competition with site-selective HSA-binding drugs; settings: from competition assays
Chain of HSA (fatty-acid free) (P02768 25-609): as above
Experimental: HSA (fatty-acid free) (0.34 mg/mL, 5 μM) was preincubated for 2 h in phosphate buffer with different concentrations of the drugs (up to 200 μM) before BDC-9 (10 μM) was added. F is the fluorescence intensity at the indicated drug concentration and F0 is the fluorescence intensity with no drug added; λexc.: 460 nm, λem.: 575 nm; values are represented as means and error bars as standard deviations (n=3).
The binding properties of BDC-9 were studied. HSA consists of at least nine binding sites (34-38), amongst which fatty acid (FA) sites 1, 3 and 4 (Sudlow Site II), 5, 6 and 7 (Sudlow Site I) are known to have affinity for drug compounds (31,39-44). […] To verify specific binding and determine the binding site(s) of BDC-9 in HSA, competition assays using drugs binding to the respective sites (e.g. hemin (FA1 site)(71,72), dansyl-L-norvaline (FA3/4 sites) (73), propofol (FA3/4 and FA5 sites) (35), ibuprofen (FA3/4 and FA6 sites) (74) and warfarin (FA7 site) (74) were performed (75).
There have been several reports of fluorescent dyes binding to FA3/4 (48,49,73), FA6 (51) and FA7 (54,55,76) sites. The present invention represents the first known experimentally proven fluorescent dye binding to the FA1 site (76), in which binding is not dependent on contact with bound lipid (72). BDC-9 is therefore a valuable probe for examining the heme region on HSA.

HSA [6] = biological target: T1, HSA; assay: Fluorescence response to serial dilutions of HSA; assay type: binding
Experimental: Values are represented as means (n=3).
Mixtures of BDC-9 with HSA were prepared in phosphate buffer (pH 7.3, 1% DMSO) at room temperature and fluorescence measurements were taken after incubation for 2 h unless otherwise stated.

[7] = tested on: serum albumins from rat (RSA), porcine (PSA), rabbit (RbSA), sheep (SSA) and bovine (BSA); assay: Species selectivity: fluorescence response to serum albumins of different species; assay type: binding; settings: 10 μM, albumins 1.2×10^−4 to 4 mg/mL
Experimental: FIGS. 7a and 7b show species selectivity of BDC-9. […] FIG. 7b is a photographic image of BDC-9 (10 μM) mixed with respective albumins. Irradiation with a handheld UV lamp at 365 nm.
The selectivity of BDC-9 towards serum albumins from different species was investigated. Serum albumins represent a family of proteins with a high degree of similarity in their primary sequence across various species (˜75% homology) (34,39,40,62). […] The fluorescence response of BDC-9 was evaluated against serial concentrations of serum albumins from rat (RSA), porcine (PSA), rabbit (RbSA), sheep (SSA) and bovine (BSA).

[8] = tested on: mixed primary neural cell populations; assay: Flow cytometry analysis and FACS sorting of mixed primary neural cells; assay type: cell-based, mouse
Source text: Unstained controls are shown in each spectrum from about 0 to about 1 G.
To further analyze this population of compound positive cells, the two populations (Bright and Dim) were sorted out cell re-culture and RNA extraction for gene analysis.

Row | Structure (SMILES) | φ (%) [1] | λmax Absorp. (nm) [4] | λmax Emission (nm) [4] | other results
1 | Nc1ccc(C2=C3C=CC(N4CCCCC4)=[N+]3[B-](F)(F)n3c2ccc3-n2cc(-c3ccccc3)nn2)cc1 [BDC-9, 10-(4-aminophenyl)-5,5-difluoro-7-(4-phenyl-1H-1,2,3-triazol-1-yl)-3-(piperidin-1-yl)-5H-dipyrrolo[1,2-c:2′,1′-f][1,3,2]diazaborinin-4-ium-5-uide] | – | – | – | φ (quantum yield) ([1]; BDC library, Table 2, excitation 460 nm): 0.22%; fluorescence intensity versus solvent viscosity [2]: systematically increased in more viscous alcohols; also recorded: strong correlation between fluorescence intensity and viscosity; selectivity of fluorescence response among proteins and analytes (human serum albumin): remarkable selectivity towards human serum albumin; correlation between fluorescence response and amount of HSA in urine (HSA [3]): excellent linear correlation; λmax Absorp. ([4]; BDC library, Table 2): 472 nm; λmax Emission ([4]; BDC library, Table 2): 581 nm; Kd (HSA [5]): 12.7 ± 0.4 µM; binding site on HSA (HSA (fatty-acid free)): binding to the FA1 site (heme site) of HSA; increase in fluorescence upon binding to HSA (HSA [6]; 10 μM, phosphate buffer, λexc 460 nm): 220 fold; limit of detection of HSA (HSA [6]; S/N=3): 0.3 µg/mL; selectivity towards HSA versus serum albumins from other species [7]: marked selectivity towards HSA with marginal response on the other species
2 | CCCC(C)c1cn(-c2ccc3n2[B-](F)(F)[N+]2=C(NCc4ccccc4C)C=CC2=C3c2ccc(NC(=O)CCl)cc2)nn1 (stereo not drawn) [MKCA101-3] | 31.22% | 464 nm | 563 nm | flow cytometry profile of stained mixed neural cell populations [8]: neuronal population segregating from the main population
3 | CCCc1cn(-c2ccc3n2[B-](F)(F)[N+]2=C(N4CCCC4)C=CC2=C3c2ccc(NC(=O)CCl)cc2)nn1 [MKCA215-48] | 4.60% | 462 nm | 565 nm | –
4 | CCCCCC(O)c1cn(-c2ccc3n2[B-](F)(F)[N+]2=C(N4CCCC4)C=CC2=C3c2ccc(NC(=O)CCl)cc2)nn1 (stereo not drawn) [MKCA215-69] | 3.42% | 462 nm | 569 nm | –
5 | O=C(CCl)Nc1ccc(C2=C3C=CC(N4CCCC4)=[N+]3[B-](F)(F)n3c2ccc3-n2cc(CO)nn2)cc1 [MKCA215-70] | 1.97% | 459 nm | 568 nm | –
6 | CCCC(C)c1cn(-c2ccc3n2[B-](F)(F)[N+]2=C(NCc4cc(F)cc(F)c4)C=CC2=C3c2ccc(NC(=O)CCl)cc2)nn1 (stereo not drawn) [MKCA412-3] | 41.81% | 467 nm | 563 nm | –
7 | O=C(CCl)Nc1ccc(C2=C3C=CC(NCc4cc(F)cc(F)c4)=[N+]3[B-](F)(F)n3c2ccc3-n2cc(C3CC3)nn2)cc1 [MKCA412-4] | 36.25% | 467 nm | 563 nm | –
8 | O=C(CCl)Nc1ccc(C2=C3C=CC(NCc4cc(F)cc(F)c4)=[N+]3[B-](F)(F)n3c2ccc3-n2cc(C3CCCC3)nn2)cc1 [MKCA412-5] | 41.21% | 468 nm | 563 nm | –
9 | O=C(CCl)Nc1ccc(C2=C3C=CC(NCc4cc(F)cc(F)c4)=[N+]3[B-](F)(F)n3c2ccc3-n2cc(CC3CCCCC3)nn2)cc1 [MKCA412-8] | 36.92% | 467 nm | 564 nm | –
10 | CN(Cc1ccccc1)Cc1cn(-c2ccc3n2[B-](F)(F)[N+]2=C(NCc4cc(F)cc(F)c4)C=CC2=C3c2ccc(NC(=O)CCl)cc2)nn1 [MKCA412-18] | 26.25% | 463 nm | 560 nm | –
11 | O=C(CCl)Nc1ccc(C2=C3C=CC(NCc4cc(F)cc(F)c4)=[N+]3[B-](F)(F)n3c2ccc3-n2cc(CCc3ccccc3)nn2)cc1 [MKCA412-19] | 42.58% | 466 nm | 563 nm | –
12 | CC(C)Cc1cn(-c2ccc3n2[B-](F)(F)[N+]2=C(NCc4cc(F)cc(F)c4)C=CC2=C3c2ccc(NC(=O)CCl)cc2)nn1 [MKCA412-43] | 37.83% | 468 nm | 563 nm | –
13 | CCCc1cn(-c2ccc3n2[B-](F)(F)[N+]2=C(NCc4cc(F)cc(F)c4)C=CC2=C3c2ccc(NC(=O)CCl)cc2)nn1 [MKCA412-48] | 36.09% | 466 nm | 561 nm | –
14 | CCCCCC(O)c1cn(-c2ccc3n2[B-](F)(F)[N+]2=C(NCc4cc(F)cc(F)c4)C=CC2=C3c2ccc(NC(=O)CCl)cc2)nn1 (stereo not drawn) [MKCA412-69] | 30.05% | 465 nm | 562 nm | –
15 | O=C(CCl)Nc1ccc(C2=C3C=CC(NCc4cc(F)cc(F)c4)=[N+]3[B-](F)(F)n3c2ccc3-n2cc(CO)nn2)cc1 [MKCA412-70] | 6.28% | 464 nm | 562 nm | –
